How the values were obtained:
[1] = Drug-drug interaction study: PK of Compound 1 with the strong CYP3A4 inhibitor itraconazole; assay type: in vivo, human; details: healthy volunteers, with itraconazole 200 mg q.d. vs Compound 1 alone
GFAP positive astrocytes = assay: Activated astrocytes in APP23 mice (GFAP positive area); assay type: in vivo, mouse; details: for Distal GFAP+ area / Proximal GFAP+ area / Total GFAP+ area / non-plaque associated GFAP+ area / plaque-associated GFAP+ area: normalized to total area (100 * mean ± SEM)
From the text: Amyloid plaques were stained using a rabbit anti-Aβ primary antibody which recognizes the C-terminal part of the amyloid peptide (the antibody was raised as described in Schrader-Fischer G, Paganetti P A, 1996; Schrader-Fischer G et al., 1997). Activated astrocytes were detected using a commercial rabbit anti-GFAP (reference Z0334 from Dako Schweiz GmbH, Baar, Switzerland).
All study animals were used and brain tissue sections of 3 micrometers were freshly cut and collected on SuperFrost+ slides. The tissues sections were de-paraffinized and rehydrated under solvent-free conditions (EZprep solution) followed by antigen retrieval (demasking) performed by heat retrieval cycles for 32 min in an EDTA based buffer (CC1 solution). Subsequently, slides were blocked for 4 min using the DISCOVERY Inhibitor (reference 07017944001 (Roche)). The primary antibody diluted at 1/20,000 in antibody diluent was manually added on tissue sections and incubated for 1h at room temperature. A short post-fixation (glutaraldehyde at 0.05%) was performed before applying the multimer UltraMap-anti Rabbit HRP ready to use antibody (reference 05269717001) for 16 min.
Detection was performed using the DISCOVERY FITC® following the manufacturer's recommendations. Slides were then heat denaturated at 92° C. for 20 min before a manual application of the second primary antibody (anti-GFAP diluted at 1/2,000) and incubated for 1 h. UltraMap-anti-Rabbit HRP antibody was used again for 20 min to detect GFAP in combination with the DISCOVERY Rhodamine kit (reference 07259883001).
The slides were washed and mounted using Prolong® Gold antifade reagent (reference P36931, ThermoFisher, Switzerland) and further scanned with the Hamamatsu slide scanner instrument (NanoZoomer 2.0 HT, scanning software NDP-Scan Vers. 2.5, Hamamatsu Photonics France, Swiss Office, Solothurn, Switzerland) at the 40× objective. The scanning settings were as follows: the exposure time with the DAPI filter was set at 57 ms as well as for the FITC filter. The exposure time for the TRITC filter (detection of Rhodamine) was set at 14.2 ms.
For the beta-amyloid plaque and neuroinflammation analysis, the following sequence of steps was performed: • Slides were scanned with Hamamatsu Nanozoomer at 40× magnification. For each fluorescence labelling (DAPI, FITC and TRITC), a separate image was created • Manually outline ROIs (regions of interest) for defining cortex in brain sections for Aβ plaque assessment on the green FITC channel image, then use the resulting outline also for the other two channel images (copy resulting xml files) • Run the in-house developed ImageScope (V12.1.0.5029, Aperio Inc., USA) plug-in for creation and export of *.tif image tiles (at 10× magnification) for each of the 3 fluorescence channels
Image Batch Processing: • Obtain the combined true color image (DAPI, FITC, TRITC) for each section through accessing each individual fluorescence channel image • Segmentation of valid sample (within outlined ROI) from black unstained background • Apply adaptive thresholding technique for segmentation of objects in green channel image
(FITC-labeled Aβ plaques) • Separation of touching objects for correct subsequent individual object analysis after elimination of too small debris showing signal in the green (FITC) channel • Segmentation of TRITC-labeled objects in red channel (specific for GFAP or Iba1 staining indicating astrocytes or microglia) through morphological tophat transformation and thresholding • Feature based object classification […]

Aβ40 = assay: Formic acid soluble Aβ40 in APP23 mouse forebrain; assay type: in vivo
Procedure: (§1) Frozen mouse forebrains were weighed and homogenized in 9 volumes (w/v) of ice-cold TBS-Complete (20 mM Tris-HCl pH 7.4, 137 mM NaCl, 1× Complete [Protease Inhibitor Cocktail Tablets: 1 836 145, Roche Diagnostics GmbH, Penzberg, Germany]) by sonication (90% duty cycle, output control 5, 40-55 pulses, [Sonifier 450, Branson]). After homogenization several 50 μl aliquots were prepared for analysis and were stored at −80° C.
(§2) Fifty microliter of forebrain homogenate was mixed with 116.6 μl 100% formic acid, resulting in a final formic acid concentration of 70%. Samples were stored on ice and vortexed every 5 minutes. For neutralization, 50 μl of the mixture were pipetted into a new tube, and 950 μl of 1 M Tris base, containing 1× Complete Protease inhibitor, was added. Tubes were stored at room temperature overnight and then centrifuged for 15 minutes at 14000 rpm in an Eppendorf Microzentrifuge at 4° C. From the top layer, 100 μl are removed and mixed with 100 μl of 3% Blocker A solution (part of the MesoScale assay kit). This sample was either directly applied to the assay plate (dilution 1:1332) or further diluted in 1% Blocker A solution.

total Aβ (40+42) = assay: Formic acid soluble total Aβ (40+42) and Aβ42/40 ratio in APP23 mouse forebrain; assay type: in vivo
Procedure: as §1, §2

SMILES: C[C@@]1(c2nc(NC(=O)c3ncc(C(F)(F)F)cc3Cl)ccc2F)CO[C@@](C)(C(F)(F)F)C(N)=N1 [Compound 1, N-(6-((3R,6R)-5-amino-3,6-dimethyl-6-(trifluoromethyl)-3,6-dihydro-2H-1,4-oxazin-3-yl)-5-fluoropyridin-2-yl)-3-chloro-5-(trifluoromethyl)picolinamide]
- increase of mean AUC of Compound 1 [1]: 2-3 fold
- increase of mean Cmax of Compound 1 [1]: 25%
- Distal GFAP+ area (GFAP positive astrocytes; APP23, 0.03 g/kg food): 12.16 ± 1.52
- Proximal GFAP+ area (GFAP positive astrocytes; APP23, 0.03 g/kg food): 4.11 ± 0.86
- Total GFAP+ area (GFAP positive astrocytes; APP23, 0.03 g/kg food): 18.56 ± 2.59
- non-plaque associated GFAP+ area (GFAP positive astrocytes; APP23, 0.03 g/kg food): 16.27 ± 2.19
- plaque-associated GFAP+ area (GFAP positive astrocytes; APP23, 0.03 g/kg food): 2.29 ± 0.47
- Distal GFAP+ area, change vs vehicle (GFAP positive astrocytes; APP23, 0.03 g/kg vs vehicle): −8.9%
- Proximal GFAP+ area, change vs vehicle (GFAP positive astrocytes; APP23, 0.03 g/kg vs vehicle): −28.0%
- Total GFAP+ area, change vs vehicle (GFAP positive astrocytes; APP23, 0.03 g/kg vs vehicle): −16.9%
- non-plaque associated GFAP+ area, change vs vehicle (GFAP positive astrocytes; APP23, 0.03 g/kg vs vehicle): −14.6%
- plaque-associated GFAP+ area, change vs vehicle (GFAP positive astrocytes; APP23, 0.03 g/kg vs vehicle): −29.8%
- Distal GFAP+ area (GFAP positive astrocytes; APP23, 0.3 g/kg food): 9.72 ± 1.65
- Proximal GFAP+ area (GFAP positive astrocytes; APP23, 0.3 g/kg food): 1.91 ± 0.51
- Total GFAP+ area (GFAP positive astrocytes; APP23, 0.3 g/kg food): 12.79 ± 2.33
- non-plaque associated GFAP+ area (GFAP positive astrocytes; APP23, 0.3 g/kg food): 11.63 ± 2.06
- plaque-associated GFAP+ area (GFAP positive astrocytes; APP23, 0.3 g/kg food): 1.16 ± 0.32
- Distal GFAP+ area, change vs vehicle (GFAP positive astrocytes; APP23, 0.3 g/kg vs vehicle): −27.2%
- Proximal GFAP+ area, change vs vehicle (GFAP positive astrocytes; APP23, 0.3 g/kg vs vehicle): −66.6%
- Total GFAP+ area, change vs vehicle (GFAP positive astrocytes; APP23, 0.3 g/kg vs vehicle): −42.7%
- non-plaque associated GFAP+ area, change vs vehicle (GFAP positive astrocytes; APP23, 0.3 g/kg vs vehicle): −39.0%
- plaque-associated GFAP+ area, change vs vehicle (GFAP positive astrocytes; APP23, 0.3 g/kg vs vehicle): −64.3%
- Formic acid soluble Aβ40 change vs vehicle (Aβ40; APP23, 0.03 g/kg vs vehicle): −18.1%
- Formic acid soluble Aβ40 change vs vehicle (Aβ40; APP23, 0.3 g/kg vs vehicle): −79.2%
- Formic acid soluble Total Aβ change vs vehicle (total Aβ (40+42); APP23, 0.03 g/kg vs vehicle): −17.9%
- Formic acid soluble Total Aβ change vs vehicle (total Aβ (40+42); APP23, 0.3 g/kg vs vehicle): −79.8%
- reduction of deposited Aβ40 and Aβ42 vs vehicle (total Aβ (40+42); APP23, high dose): around 80%
- reduction of deposited Aβ40 and Aβ42 compared to vehicles (total Aβ (40+42); APP23, low dose): around 17%

Source: patent publication US20200345746A1, “Oxazine Derivative for Use in the Prevention of Alzheimer's Disease in at Risk Patents” (Novartis AG, priority 2016, published 2020)
